Laboratory results published in patent US4220755A, “Fortimicin B derivatives and process for production thereof” (Abbott Laboratories, priority 1976, dated 1980).
Converted amounts (≈) assume the structure as drawn.

Columns and labels:
Escherichia coli NIHTC-2 = test: MIC, agar dilution method, pH 7.2; type: cell-based; conditions: NIHTC2; pH 7.2; Escherichia coli NIHTC-2; read-out: Minimum inhibition concentration (MIC)
Procedure: (§1) Measurement was carried out according to the agar dilution method, using a medium of pH 8.0, or the Japanese Antibiotic Medicament Standard, using a medium of pH 7.2 Units are in mcg/ml.

[1] = tested on: Eschericihia coli GN2411-5; test: MIC, agar dilution method, pH 7.2; type: cell-based; conditions: Escherichia coli; pH 7.2; E. coli GN2411-5; read-out: Minimum inhibition concentration (MIC)
Procedure: as §1

[2] = tested on: Klebsiella pneumoniae KY4274; test: MIC, agar dilution method, pH 7.2; type: cell-based; conditions: pH 7.2; Klebsiella pneumoniae KY4274; read-out: Minimum inhibition concentration (MIC)
Procedure: as §1

Proteus vulgaris JJ = test: MIC, agar dilution method, pH 7.2; type: cell-based; conditions: pH 7.2; Proteus vulgaris JJ; read-out: Minimum inhibition concentration (MIC)
Procedure: as §1

[3] = tested on: Pseudomonas aeruginosa BMH# 1; test: MIC, agar dilution method, pH 7.2; type: cell-based; conditions: pH 7.2; Pseudomonas aeruginosa BMH# 1; read-out: Minimum inhibition concentration (MIC)
Procedure: as §1

[4] = tested on: Pseudomonas aeruginosa UCLA 4184; test: MIC, agar dilution method, pH 7.2; type: cell-based; conditions: UCLA4184; pH 7.2; Pseudomonas aeruginosa UCLA 4184; read-out: Minimum inhibition concentration (MIC)
Procedure: as §1

[5] = tested on: Salmonella enteritidis G-14; test: MIC, agar dilution method, pH 7.2; type: cell-based; conditions: Salmonella enterica; pH 7.2; Salmonella enteritidis G-14; read-out: Minimum inhibition concentration (MIC)
Procedure: as §1

Shigella sonnei ATCC9290 = test: MIC, agar dilution method, pH 7.2; type: cell-based; conditions: read-out: Minimum inhibition concentration (MIC)
Procedure: as §1

[6] = tested on: Staphylococcus aureus 209-P; test: MIC, agar dilution method, pH 7.2; type: cell-based; conditions: pH 7.2; Staphylococcus aureus 209-P; read-out: Minimum inhibition concentration (MIC)
Procedure: as §1

[7] = tested on: Staphylococcus aureus Smith (A); test: MIC, agar dilution method, pH 7.2; type: cell-based; conditions: pH 7.2; Staphylococcus aureus Smith (A); read-out: Minimum inhibition concentration (MIC)
Procedure: as §1

[8] = tested on: Staphylococcus a ureus 226; test: MIC, agar dilution method, pH 7.2; type: cell-based, Staphylococcus aureus; conditions: pH 7.2; Staphylococcus aureus 226; read-out: Minimum inhibition concentration (MIC)
Procedure: as §1

Eschericihia coli 3100 = test: MIC, agar dilution method, pH 7.2; type: cell-based, Escherichia coli; conditions: Escherichia coli; pH 7.2; E. coli 3100; read-out: Minimum inhibition concentration (MIC)
Procedure: as §1

[9] = tested on: Escherichia coli 57R/W677; test: MIC, agar dilution method, pH 7.2; type: cell-based; conditions: 57R/W677, pH 7.2, read-out: Minimum inhibition concentration (MIC)
Procedure: as §1
(§2) **1: gentamicin, producing adenylsynthetase.

Escherichia coli 76-2 = test: MIC, agar dilution method, pH 7.2; type: cell-based; conditions: Escherichia coli, 762; pH 7.2; E. coli 76-2; 1**: gentamicin, producing adenylsynthetase; read-out: Minimum inhibition concentration (MIC)
Procedure: as §1, §2

[10] = tested on: Escherichia coli R12 Z-338; test: MIC, agar dilution method, pH 7.2; type: cell-based; conditions: R12Z338, pH 7.2, E. coli R12 Z-338, 1**: gentamicin, producing adenylsynthetase, read-out: Minimum inhibition concentration (MIC)
Procedure: as §1, §2

[11] = tested on: Klebsiella pneumoniae 3020 Y-60; test: MIC, agar dilution method, pH 7.2; type: cell-based; conditions: 3020Y60; pH 7.2; Klebsiella pneumoniae 3020 Y-60; 1**: gentamicin, producing adenylsynthetase; read-out: Minimum inhibition concentration (MIC)
Procedure: as §1, §2

[12] = tested on: Escherichia coli R18 KY8321; test: MIC, agar dilution method, pH 7.2; type: cell-based; conditions: R18KY8321, E. coli R18 KY8321, 2**: gentamicin, producing adenylsynthetase and neomycin phosphotransferase type II, read-out: Minimum inhibition concentration (MIC)
Procedure: as §1
2: gentamicin, producing adenylsynthetase and neomycin phosphotransferase

[13] = tested on: Escherichia coli R17 Z343; test: MIC, agar dilution method, pH 7.2; type: cell-based; conditions: R17Z343, pH 7.2, E. coli R17 Z343, 3**: kanamycin, producing acetyltransferase, read-out: Minimum inhibition concentration (MIC)
Procedure: as §1
(§3) 3: kanamycin, producing acetyltransferase.

[14] = tested on: Pseudomonas aeruginosa R9 KY8516; test: MIC, agar dilution method, pH 7.2; type: cell-based; conditions: R9KY8516, pH 7.2, P. aeruginosa R9 KY8516, 3**: kanamycin, producing acetyltransferase, read-out: Minimum inhibition concentration (MIC)
Procedure: as §1, §3

Serratia marcescens 1065 = test: MIC, agar dilution method, pH 7.2; type: cell-based; conditions: pH 7.2; Serratia marcescens 1065; 3**: kanamycin, producing acetyltransferase; read-out: Minimum inhibition concentration (MIC)
Procedure: as §1, §3

[15] = tested on: Escherichia coli R19 KY8348; test: MIC, agar dilution method, pH 7.2; type: cell-based; conditions: R19KY8348, pH 7.2, E. coli R19 KY8348, 4**: gentamicin, producing acetyltransferase type I, read-out: Minimum inhibition concentration (MIC)
Procedure: as §1
(§4) 4: gentamicin, producing acetyltransferase type I.

[16] = tested on: Pseudomonas aeruginosa R4 KY8511; test: MIC, agar dilution method, pH 7.2; type: cell-based; conditions: R4KY8511, pH 7.2, P. aeruginosa R4 KY8511, 4**: gentamicin, producing acetyltransferase type I, read-out: Minimum inhibition concentration (MIC)
Procedure: as §1, §4

[17] = tested on: Escherichia coli R20 KY8349; test: MIC, agar dilution method, pH 7.2; type: cell-based; conditions: R20KY8349, pH 7.2, E. coli R20 KY8349, 5**: neomycin, producing phosphotransferase type I, read-out: Minimum inhibition concentration (MIC)
Procedure: as §1
5: neomycin, producing phosphotransferase type I.

[18] = tested on: Pseudomonas aeruginosa R5 KY8512; test: MIC, agar dilution method, pH 7.2; type: cell-based; conditions: R5KY8512, pH 7.2, P. aeruginosa R5 KY8512, 6**: neomycin, producing phosphotransferase type I and type II, read-out: Minimum inhibition concentration (MIC)
Procedure: as §1
6: neomycin, producing phosphotransferase type I and type II.

Providencia sp 164 = test: MIC, agar dilution method, pH 7.2; type: cell-based; conditions: pH 7.2; Providencia sp 164; 7**: gentamicin, producing acetyltransferase type II; read-out: Minimum inhibition concentration (MIC)
Procedure: as §1
7: gentamicin, producing acetyltransferase type II.

[19] = tested on: Staphylococcus aureus KY4279 ATCC6538P; test: MIC, agar dilution method, pH 8.0; type: cell-based; conditions: Staphylococcus aureus, pH 8, read-out: Minimum inhibition concentration (MIC), SA
Procedure: as §1
S.A.: Staphylococcus aureus KY4279 ATCC6538P

Bacillus subtilis KY4273 = test: MIC, agar dilution method, pH 8.0; type: cell-based; conditions: pH 8.0; Bacillus subtilis KY4273; read-out: Minimum inhibition concentration (MIC), BS
Procedure: as §1
B.S.: Bacillus subtilis KY4273

[20] = tested on: Eschericia coli KY4271 ATCC26; test: MIC, agar dilution method, pH 8.0; type: cell-based; conditions: Escherichia coli, ATCC26, pH 8, read-out: Minimum inhibition concentration (MIC), EC
Procedure: as §1
E.C.: Eschericia coli KY4271 ATCC26

[21] = tested on: Proteus vulgaris KY4277 ATCC6897; test: MIC, agar dilution method, pH 8.0; type: cell-based; conditions: ATCC6897; pH 8.0; Proteus vulgaris KY4277; read-out: Minimum inhibition concentration (MIC), PV
Procedure: as §1

[22] = tested on: Shigella sonnei KY4281 ATCC9290; test: MIC, agar dilution method, pH 8.0; type: cell-based; conditions: ATCC9290; pH 8.0; Shigella sonnei KY4281; read-out: Minimum inhibition concentration (MIC), SS
Procedure: as §1

[23] = tested on: Salmonella typhosa KY4278 ATCC9992; test: MIC, agar dilution method, pH 8.0; type: cell-based; conditions: Salmonella enterica, pH 8, read-out: Minimum inhibition concentration (MIC), ST
Procedure: as §1
S.T.: Salmonella typhosa KY4278 ATCC9992

[24] = tested on: Klebsiella pneumoniae KY4275 ATCC10031; test: MIC, agar dilution method, pH 8.0; type: cell-based; conditions: ATCC10031; pH 8.0; Klebsiella pneumoniae KY4275; read-out: Minimum inhibition concentration (MIC), KP
Procedure: as §1
K.P.: Klebsiella pneumoniae KY4275 ATCC10031.

CO[C@H]1[C@@H](O)[C@H](N)[C@@H](O[C@H]2O[C@H]([C@H](C)N)CC[C@H]2N)[C@H](O)[C@@H]1N(C)C(=O)CO [Compound 4, 4-N-glycolylfortimicin B]
MIC (Escherichia coli NIHTC-2): 12.5 µg/mL (≈ 30.8 µM)
MIC [1]: 12.5 µg/mL (≈ 30.8 µM)
MIC [2]: 25 µg/mL (≈ 61.5 µM)
MIC (Proteus vulgaris JJ): 25 µg/mL (≈ 61.5 µM)
MIC [3]: 50 µg/mL (≈ 123 µM)
MIC [4]: 100 µg/mL (≈ 246 µM)
MIC [5]: 25 µg/mL (≈ 61.5 µM)
MIC (Shigella sonnei ATCC9290): 25 µg/mL (≈ 61.5 µM)
MIC [6]: 3.12 µg/mL (≈ 7.68 µM)
MIC [7]: 3.12 µg/mL (≈ 7.68 µM)
MIC [8]: 12.5 µg/mL (≈ 30.8 µM)
MIC (Eschericihia coli 3100): 12.5 µg/mL (≈ 30.8 µM)
MIC [9]: 25 µg/mL (≈ 61.5 µM)
MIC (Escherichia coli 76-2): 6.25 µg/mL (≈ 15.4 µM)
MIC [10]: 25 µg/mL (≈ 61.5 µM)
MIC [11]: > 100 µg/mL
MIC [12]: 6.25 µg/mL (≈ 15.4 µM)
MIC [13]: 6.25 µg/mL (≈ 15.4 µM)
MIC [14]: 100 µg/mL (≈ 246 µM)
MIC (Serratia marcescens 1065): 50 µg/mL (≈ 123 µM)
MIC [15]: > 100 µg/mL
MIC [16]: > 100 µg/mL
MIC [17]: 12.5 µg/mL (≈ 30.8 µM)
MIC [18]: 50 µg/mL (≈ 123 µM)
MIC (Providencia sp 164): 100 µg/mL (≈ 246 µM)
MIC [19]: 1.25 µg/mL (≈ 3.08 µM)
MIC (Bacillus subtilis KY4273): 5 µg/mL (≈ 12.3 µM)
MIC [20]: 1.25 µg/mL (≈ 3.08 µM)
MIC [21]: 2.5 µg/mL (≈ 6.15 µM)
MIC [22]: 5 µg/mL (≈ 12.3 µM)
MIC [23]: 1.25 µg/mL (≈ 3.08 µM)
MIC [24]: 5 µg/mL (≈ 12.3 µM)
